Source: ChEMBL document CHEMBL3621049, “Imidazole derivatives show anticancer potential by inducing apoptosis and cellular senescence” (2014)
Active and inactive are the calls of the source. No cut-off for these calls is given here.

How the values were obtained:
NCI-H460 = experiment: Growth inhibition of human NCI-H460 cells at 10 uM by sulforhodamine B assay; type: functional, cell-based
OVCAR-4 = experiment: Growth inhibition of human OVCAR4 cells at 10 uM by sulforhodamine B assay; type: functional, cell-based
SF-268 = experiment: Growth inhibition of human SF268 cells at 10 uM by sulforhodamine B assay; type: functional, cell-based
SK-MEL-2 = experiment: Growth inhibition of human SK-MEL-2 cells at 10 uM by sulforhodamine B assay; type: functional, cell-based
UACC-62 = experiment: Growth inhibition of human UACC62 cells at 10 uM by sulforhodamine B assay; type: functional, cell-based
SR = experiment: Growth inhibition of human SR cells at 10 uM by sulforhodamine B assay; type: functional, cell-based
COLO 205 = experiment: Growth inhibition of human COLO205 cells at 10 uM by sulforhodamine B assay; type: functional, cell-based
ACHN = experiment: Growth inhibition of human ACHN cells at 10 uM by sulforhodamine B assay; type: functional, cell-based
UACC-257 = experiment: Growth inhibition of human UACC257 cells at 10 uM by sulforhodamine B assay; type: functional, cell-based
A549 [1] = experiment: Cell cycle arrest in human A549 cells assessed as accumulation at G0/G1 phase at 10 uM after 48 hrs using propidium iodide staining by flow cytometer analysis (reference value: 79.34%); type: functional
NCI-H226 = experiment: Growth inhibition of human NCI-H226 cells at 10 uM by sulforhodamine B assay; type: functional, cell-based
A549 [2] = experiment: Inhibition of cell migration in human A549 cells assessed as cells migrating into scratch area after 24 hrs by wound healing assay; type: functional, cell-based
OVCAR-3 = experiment: Growth inhibition of human OVCAR3 cells at 10 uM by sulforhodamine B assay; type: functional, cell-based
786-0 = experiment: Growth inhibition of human 786-0 cells at 10 uM by sulforhodamine B assay; type: functional, cell-based
U-251 = experiment: Growth inhibition of human U251 cells at 10 uM by sulforhodamine B assay; type: functional, cell-based
K562 = experiment: Growth inhibition of human K562 cells at 10 uM by sulforhodamine B assay; type: functional, cell-based
CAKI-1 = experiment: Growth inhibition of human Caki1 cells at 10 uM by sulforhodamine B assay; type: functional, cell-based
HCT-116 = experiment: Growth inhibition of human HCT116 cells at 10 uM by sulforhodamine B assay; type: functional, cell-based
SN12C = experiment: Growth inhibition of human SN12C cells at 10 uM by sulforhodamine B assay; type: functional, cell-based
MCF7 = experiment: Growth inhibition of human MCF7 cells at 10 uM by sulforhodamine B assay; type: functional, cell-based
MOLT-4 = experiment: Growth inhibition of human MOLT4 cells at 10 uM by sulforhodamine B assay; type: functional, cell-based
RXF 393 = experiment: Growth inhibition of human RXF393 cells at 10 uM by sulforhodamine B assay; type: functional, cell-based
HCC 2998 = experiment: Growth inhibition of human HCC2998 cells at 10 uM by sulforhodamine B assay; type: functional, cell-based
A549 [3] = experiment: Cell cycle arrest in human A549 cells assessed as accumulation at sub-G1 phase at 10 uM after 48 hrs using propidium iodide staining by flow cytometer analysis (reference value: 0.96%); type: functional
NCI/ADR-RES = experiment: Growth inhibition of human NCI/ADR-RES cells at 10 uM by sulforhodamine B assay; type: functional, cell-based
A549 [4] = experiment: Cell cycle arrest in human A549 cells assessed as accumulation at G2/M phase at 5 uM after 48 hrs using propidium iodide staining by flow cytometer analysis (reference value: 13.02%); type: functional
SNB-75 = experiment: Growth inhibition of human SNB75 cells at 10 uM by sulforhodamine B assay; type: functional, cell-based
LOX IMVI = experiment: Growth inhibition of human LOXIMVI cells at 10 uM by sulforhodamine B assay; type: functional, cell-based
NCI-H23 = experiment: Growth inhibition of human NCI-H23 cells at 10 uM by sulforhodamine B assay; type: functional, cell-based
A549 [5] = experiment: Cytotoxicity against human A549 cells assessed as decrease in cell viability up to 72 hrs by MTT assay; type: functional, cell-based
RPMI-8226 = experiment: Growth inhibition of human RPMI8226 cells at 10 uM by sulforhodamine B assay; type: functional, cell-based
SK-OV-3 = experiment: Growth inhibition of human SKOV3 cells at 10 uM by sulforhodamine B assay; type: functional, cell-based
A549 [6] = experiment: Cell cycle arrest in human A549 cells assessed as accumulation at S phase at 5 uM after 48 hrs using propidium iodide staining by flow cytometer analysis (reference value: 6.67%); type: functional
A549 [7] = experiment: Growth inhibition of human A549/ATCC cells at 10 uM by sulforhodamine B assay; type: functional, cell-based
PC-3 = experiment: Growth inhibition of human PC3 cells at 10 uM by sulforhodamine B assay; type: functional, cell-based
MDA-MB-468 = experiment: Growth inhibition of human MDA-MB-468 cells at 10 uM by sulforhodamine B assay; type: functional, cell-based
NCI-H322M = experiment: Growth inhibition of human NCI-H322M cells at 10 uM by sulforhodamine B assay; type: functional, cell-based
A549 [8] = experiment: Cell cycle arrest in human A549 cells assessed as accumulation at sub-G1 phase at 20 uM after 48 hrs using propidium iodide staining by flow cytometer analysis (reference value: 0.96%); type: functional
Hs-578T = experiment: Growth inhibition of human Hs 578T cells at 10 uM by sulforhodamine B assay; type: functional, cell-based
A549 [9] = experiment: Cell cycle arrest in human A549 cells assessed as accumulation at G2/M phase at 10 uM after 48 hrs using propidium iodide staining by flow cytometer analysis (reference value: 13.02%); type: functional
SK-MEL-28 = experiment: Growth inhibition of human SK-MEL-28 cells at 10 uM by sulforhodamine B assay; type: functional, cell-based
MDA-MB-231 = experiment: Growth inhibition of human MDA-MB-231 cells at 10 uM by sulforhodamine B assay; type: functional, cell-based
A549 [10] = experiment: Cell cycle arrest in human A549 cells assessed as accumulation at S phase at 10 uM after 48 hrs using propidium iodide staining by flow cytometer analysis (reference value: 6.67%); type: functional
A549 [11] = experiment: Cell cycle arrest in human A549 cells assessed as accumulation at G2/M phase at 20 uM after 48 hrs using propidium iodide staining by flow cytometer analysis (reference value: 13.02%); type: functional
OVCAR-5 = experiment: Growth inhibition of human OVCAR5 cells at 10 uM by sulforhodamine B assay; type: functional, cell-based
A549 [12] = experiment: Inhibition of colony formation in human A549 cells after 14 days using crystal violet staining by soft agar assay; type: functional, cell-based
A549 [13] = experiment: Cell cycle arrest in human A549 cells assessed as accumulation at sub-G1 phase at 5 uM after 48 hrs using propidium iodide staining by flow cytometer analysis (reference value: 0.96%); type: functional
M14 = experiment: Growth inhibition of human M14 cells at 10 uM by sulforhodamine B assay; type: functional, cell-based
HL-60(TB) = experiment: Growth inhibition of human HL-60(TB) cells at 10 uM by sulforhodamine B assay; type: functional, cell-based
DU-145 = experiment: Growth inhibition of human DU145 cells at 10 uM by sulforhodamine B assay; type: functional, cell-based

COc1ccc(-c2nc(-c3ccccn3)c(-c3ccccn3)n2CC(C)C)cc1OC1CCCC1
growth inhibition (GI) (NCI-H460): Active | growth inhibition (GI) (OVCAR-4): Active | growth inhibition (GI) (SF-268): Active | growth inhibition (GI) (SK-MEL-2): Active | growth inhibition (GI) (UACC-62): Active | growth inhibition (GI) (SR): Active | growth inhibition (GI) (COLO 205): Active | growth inhibition (GI) (ACHN): Active | growth inhibition (GI) (UACC-257): Active | Activity (A549 [1]): 75.7% | growth inhibition (GI) (NCI-H226): Active | inhibition (A549 [2]): Dose-dependent effect | growth inhibition (GI) (OVCAR-3): Active | growth inhibition (GI) (786-0): Active | growth inhibition (GI) (U-251): Active | growth inhibition (GI) (K562): Active | growth inhibition (GI) (CAKI-1): Active | growth inhibition (GI) (HCT-116): Active | growth inhibition (GI) (SN12C): Active | growth inhibition (GI) (MCF7): Active | growth inhibition (GI) (MOLT-4): Active | growth inhibition (GI) (RXF 393): Active | growth inhibition (GI) (HCC 2998): Active | Activity (A549 [3]): 7.63% | growth inhibition (GI) (NCI/ADR-RES): Active | Activity (A549 [4]): 4.65% | growth inhibition (GI) (SNB-75): Active | growth inhibition (GI) (LOX IMVI): Active | growth inhibition (GI) (NCI-H23): Active | Activity (A549 [5]): Dose-dependent effect | growth inhibition (GI) (RPMI-8226): Active | growth inhibition (GI) (SK-OV-3): Active | Activity (A549 [6]): 3.47% | growth inhibition (GI) (A549 [7]): Active | growth inhibition (GI) (PC-3): Active | growth inhibition (GI) (MDA-MB-468): Active | growth inhibition (GI) (NCI-H322M): Active | Activity (A549 [8]): 19.34% | growth inhibition (GI) (Hs-578T): Active | Activity (A549 [9]): 6.73% | growth inhibition (GI) (SK-MEL-28): Active | growth inhibition (GI) (MDA-MB-231): Active | Activity (A549 [10]): 9.95% | Activity (A549 [11]): 4.51% | growth inhibition (GI) (OVCAR-5): Active | inhibition (A549 [12]): Dose-dependent effect | Activity (A549 [13]): 2.49% | growth inhibition (GI) (M14): Active | growth inhibition (GI) (HL-60(TB)): Active | growth inhibition (GI) (DU-145): Active
